The target of the assay is T1, human clotting factor VIIa (Homo sapiens, UniProt P08709).
T1 construct: a human clotting factor VIIa (hereinafter, “Factor VIIa”) purified sample; purchased Enzyme Research Laboratories HFVIIa
As to the kind of experiment: Inhibitory activity against clotting factor VIIa (chromogenic substrate Spectrozyme FVIIa, TF/Factor VIIa enzyme solution). The class given is biochemical. As to conditions: human Factor VIIa 5 nmol/L with human TF 10 nmol/L, room temperature 40 minutes, 405 nm. The method in brief:
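Human Factor VIIa (5 nmol/L) with human TF (10 nmol/L) in Tris-BSA buffer pH 7.4 containing 15 mmol/L CaCl2 and cephalin, with Spectrozyme FVIIa substrate. Reaction 40 min at room temperature; 4-nitroanilide read at 405 nm. IC50 by non-linear regression over 100 μmol/L–0.1 nmol/L.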

Here are results for 24 compounds from patent US7816522B2, “Triazolone derivatives” (Eisai Co., Ltd., priority 2006, dated 2010).

What is called IC50 is the point on the concentration scale where inhibition reaches its midpoint. A high value points to lower potency.

T1 sequence (P08709 213-466 limits assumed): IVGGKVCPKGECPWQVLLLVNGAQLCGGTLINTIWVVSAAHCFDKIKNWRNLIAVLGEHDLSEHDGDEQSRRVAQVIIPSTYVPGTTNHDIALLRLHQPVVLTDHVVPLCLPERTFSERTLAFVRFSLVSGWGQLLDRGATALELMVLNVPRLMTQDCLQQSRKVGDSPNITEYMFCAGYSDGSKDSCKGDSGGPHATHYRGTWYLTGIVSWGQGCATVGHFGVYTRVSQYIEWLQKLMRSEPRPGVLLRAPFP
T1 sequence (P08709 61-212 limits assumed): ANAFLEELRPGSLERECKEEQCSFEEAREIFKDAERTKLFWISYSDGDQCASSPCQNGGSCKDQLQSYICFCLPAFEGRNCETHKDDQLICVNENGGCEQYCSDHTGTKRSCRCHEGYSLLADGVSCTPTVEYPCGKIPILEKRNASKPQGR
T1 sequence (P13726 33-295 partner): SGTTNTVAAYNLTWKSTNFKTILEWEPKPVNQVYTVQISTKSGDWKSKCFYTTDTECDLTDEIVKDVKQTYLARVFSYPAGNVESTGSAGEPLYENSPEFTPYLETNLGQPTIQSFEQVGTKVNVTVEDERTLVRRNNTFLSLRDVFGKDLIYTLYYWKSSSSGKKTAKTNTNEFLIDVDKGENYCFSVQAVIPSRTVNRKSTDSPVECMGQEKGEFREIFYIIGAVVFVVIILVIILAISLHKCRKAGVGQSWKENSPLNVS

The compound `COc1cc(C(Nc2ccc(C(=N)N)cc2)c2nn(-c3ccccc3C(N)=O)c(=O)[nH]2)cc2c1OCOC2` (racemic) [Example 211, 2-{3-[(4-Carbamimidoylphenylamino)-(8-methoxy-4H-benzo[1,3]dioxin-6-yl)methyl]-5-oxo-4,5-dihydro[1,2,4]triazol-1-yl}benzamide] had an IC50 of 4.7 nM.
For the compound `C#Cc1cc(OCCO)cc(C(Nc2ccc(C(=N)N)cc2)c2nn(-c3ncccn3)c(=O)[nH]2)c1` (racemic) [Example 212, 4-{[[3-Ethynyl-5-(2-hydroxyethoxy)phenyl]-(5-oxo-1-pyrimidin-2-yl-4,5-dihydro-1H-[1,2,4]triazol-3-yl)methyl]amino}benzamidine], the IC50 is 5.7 nM. The IC50 values of the last two compounds are within 1.5-fold of each other.
For the compound `COc1cc(C(Nc2ccc(C(=N)N)cc2)c2nn(-c3ccccn3)c(=O)[nH]2)cc2c1OCOC2` (racemic) [Example 213, (R) and (S)-4-{[(8-Methoxy-4H-benzo[1,3]dioxin-6-yl)-(5-oxo-1-pyridin-2-yl-4,5-dihydro-1H-[1,2,4]triazol-3-yl)methyl]amino}benzamidine acetate], inhibition was half-maximal at 3.3 nM (IC50).
The compound `COc1cc(C(Nc2ccc(C(=N)N)cc2)c2nn(-c3ccccc3C(N)=O)c(=O)[nH]2)cc2c1OCCCO2` (racemic) [Example 214, (R) and (S)-2-{3-[(4-Carbamimidoylphenylamino)-(9-methoxy-3,4-dihydro-2H-benzo[b][1,4]dioxepin-7-yl)methyl]-5-oxo-4,5-dihydro[1,2,4]triazol-1-yl}benzoic acid amide acetate] gave a concentration for half-maximal inhibition (IC50) of 3.5 nM.
`COc1cc(C(Nc2ccc(C(=N)N)cc2)c2nn(-c3ccsc3C(=O)O)c(=O)[nH]2)c(F)c2c1OCC2` (racemic) [Example 215, (R) and (S)-3-{3-[(4-Carbamimidoylphenylamino)-(4-fluoro-7-methoxy-2,3-dihydrobenzofuran-5-yl)methyl]-5-oxo-4,5-dihydro[1,2,4]triazol-1-yl}thiophene-2-carboxylic acid]: the IC50 stood at 3.4 nM. The IC50 values of the last two compounds are within 1.5-fold of each other.
As to `COc1cc(O[C@@H](C)CO)c(F)c(C(Nc2ccc(C(=N)N)cc2)c2nn(-c3ncccn3)c(=O)[nH]2)c1` (mixture of isomers) [Example 217, (R) and (S)-4-{[[2-Fluoro-3-((S)-2-hydroxy-1-methylethoxy)-5-methoxyphenyl]-(5-oxo-1-pyrimidin-2-yl-4,5-dihydro-1H-[1,2,4]triazol-3-yl)methyl]amino}benzamidine acetate], the IC50 was 3.1 nM. This IC50 and that of the compound before are within 1.5-fold of each other.
The compound `COc1cc(OCCO)c(F)c(C(Nc2ccc(C(=N)N)c(F)c2)c2nn(-c3ncccn3)c(=O)[nH]2)c1` (racemic) [Example 218, 2-Fluoro-4-{[[2-fluoro-3-(2-hydroxyethoxy)-5-methoxyphenyl]-(5-oxo-1-pyrimidin-2-yl-4,5-dihydro-1H-[1,2,4]triazol-3-yl)methyl]amino}benzamidine] returned a half-inhibitory concentration (IC50) of 52.4 nM.
The value for `CCOc1cc(OCCO)c(F)c(C(Nc2ccc(C(=N)N)cc2)c2nn(-c3ncccn3)c(=O)[nH]2)c1` (racemic) [Example 219, (R) and (S)-4-{[[5-Ethoxy-2-fluoro-3-(2-hydroxyethoxy)phenyl]-(5-oxo-1-pyrimidin-2-yl-4,5-dihydro-1H-[1,2,4]triazol-3-yl)methyl]amino}benzamidine acetate] was 9.5 nM.
As for `CCOc1cc(OCCO)cc(C(Nc2ccc(C(=N)N)cc2)c2nn(-c3ncccn3)c(=O)[nH]2)c1` (racemic) [Example 220, 4-{[[3-Ethoxy-5-(2-hydroxyethoxy)phenyl]-(5-oxo-1-pyrimidin-2-yl-4,5-dihydro-1H-[1,2,4]triazol-3-yl)methyl]amino}benzamidine], the IC50 came out at 7.2 nM.
`CCOc1cc(O)cc(C(Nc2ccc(C(=N)N)cc2)c2nn(-c3ncccn3)c(=O)[nH]2)c1` (racemic) [Example 221, 4-{[(3-Ethoxy-5-hydroxyphenyl)-(5-oxo-1-pyrimidin-2-yl-4,5-dihydro-1H-[1,2,4]triazol-3-yl)methyl]amino}benzamidine]: it took 25.8 nM to reach half-maximal inhibition (IC50).
The value for `COc1cc(C(Nc2ccc(C(=N)N)cc2)c2nn(-c3ccsc3C(=O)O)c(=O)[nH]2)c(F)c2c1OCCC2` (racemic) [Example 222, 3-{3-[(4-Carbamimidoylphenylamino)-(5-fluoro-8-methoxychroman-6-yl)methyl]-5-oxo-4,5-dihydro-[1,2,4]triazol-1-yl}thiophene-2-carboxylic acid] was 2.7 nM; that for `COc1cc(C(Nc2ccc(C(=N)N)cc2)c2nn(-c3ncccn3)c(=O)[nH]2)cc2c1OCC(=O)N2CCF` (racemic) [Example 223, 4-{[[4-(2-Fluoroethyl)-8-methoxy-3-oxo-3,4-dihydro-2H-benzo[1,4]oxazin-6-yl]-(5-oxo-1-pyrimidin-2-yl-4,5-dihydro-1H-[1,2,4]triazol-3-yl)methyl]amino}benzamidine] was 13.4 nM.
As to `COc1cc(OC)cc(C(Nc2ccc(C(=N)N)cc2)c2nn(-c3ncccc3C)c(=O)[nH]2)c1` (racemic) [Example 225, (R) and (S)-4-({(3,5-Dimethoxyphenyl)-[1-(3-methylpyridin-2-yl)-5-oxo-4,5-dihydro-1H-[1,2,4]triazol-3-yl]methyl}amino)benzamidine acetate], it took 3.7 nM to reach half-maximal inhibition (IC50).
The value for `COc1cc(C(Nc2ccc(C(=N)N)cc2)c2nn(-c3ccsc3C(=O)O)c(=O)[nH]2)cc2c1OCOC2` (racemic) [Example 226, 3-{3-[(R) and (S)-(4-Carbamimidoylphenylamino)-(8-methoxy-4H-benzo[1,3]dioxin-6-yl)methyl]-5-oxo-4,5-dihydro-[1,2,4]triazol-1-yl}thiophene-2-carboxylic acid] was 3.2 nM.
`COc1cc(C(Nc2ccc(C(=N)N)cc2)c2nn(-c3ccsc3C(=O)O)c(=O)[nH]2)cc(OC)c1OC` (racemic) [Example 227, 3-{3-[(R) and (S)-(4-Carbamimidoylphenylamino)-(3,4,5-trimethoxyphenyl)methyl]-5-oxo-4,5-dihydro-[1,2,4]triazol-1-yl}thiophene-2-carboxylic acid]: half-maximal inhibition (IC50) required 4.5 nM.
The value for `COc1cc(OCCO)c(F)c(C(Nc2ccc(C(=N)N)cc2)c2nn(-c3ccsc3C(=O)O)c(=O)[nH]2)c1` (racemic) [Example 228, (R) and (S)-3-(3-{(4-Carbamimidoylphenylamino)-[2-fluoro-3-(2-hydroxyethoxy)-5-methoxyphenyl]methyl}-5-oxo-4,5-dihydro[1,2,4]triazol-1-yl)thiophene-2-carboxylic acid] was 2.6 nM; that for `COc1cc(OCCCO)c(F)c(C(Nc2ccc(C(=N)N)cc2)c2nn(-c3ncccn3)c(=O)[nH]2)c1` (racemic) [Example 229, (R) and (S)-4-{[[2-Fluoro-3-(3-hydroxypropoxy)-5-methoxyphenyl]-(5-oxo-1-pyrimidin-2-yl-4,5-dihydro-1H-[1,2,4]triazol-3-yl)methyl]amino}benzamidine acetate] was 5.1 nM.
Compound `COc1cc(C(Nc2ccc(C(=N)N)cc2)c2nn(-c3ccsc3C(=O)O)c(=O)[nH]2)cc(OCCO)c1OC` (racemic) [Example 230, (R) and (S)-3-(3-{(4-Carbamimidoylphenylamino)-[3-(2-hydroxyethoxy)-4,5-dimethoxyphenyl]methyl}-5-oxo-4,5-dihydro-[1,2,4]triazol-1-yl)thiophene-2-carboxylic acid] returned an IC50 of 4.9 nM.
`COc1cc(C(Nc2ccc(C(=N)N)c(F)c2)c2nn(-c3ccsc3C(=O)O)c(=O)[nH]2)c(F)c2c1OCCO2` (racemic) [Example 231, 3-{3-[(4-Carbamimidoyl-3-fluorophenylamino)-(5-fluoro-8-methoxy-2,3-dihydrobenzo[1,4]dioxin-6-yl)methyl]-5-oxo-4,5-dihydro-[1,2,4]triazol-1-yl}thiophene-2-carboxylic acid] returned an IC50 of 6.5 nM.
As to `COc1cc(OC)cc(C(Nc2ccc(C(=N)N)cc2)c2nn(-c3ncsc3C(=O)O)c(=O)[nH]2)c1` (racemic) [Example 232, (R) and (S)-4-{3-[(4-Carbamimidoylphenylamino)-(3,5-dimethoxyphenyl)methyl]-5-oxo-4,5-dihydro-[1,2,4]triazol-1-yl}thiazole-5-carboxylic acid], it took 23.7 nM to reach half-maximal inhibition (IC50).
`COc1cc(C(Nc2ccc(C(=N)N)cc2)c2nn(-c3ncsc3C(=O)O)c(=O)[nH]2)cc(OCCO)c1OC` (racemic) [Example 233, (R) and (S)-4-(3-{(4-Carbamimidoylphenylamino)-[3-(2-hydroxyethoxy)-4,5-dimethoxyphenyl]methyl}-5-oxo-4,5-dihydro-[1,2,4]triazol-1-yl)thiazole-5-carboxylic acid] returned a half-inhibitory concentration (IC50) of 23.8 nM. This IC50 and that of the compound before are within 1.5-fold of each other.
The value for `COc1cc(C(Nc2ccc(C(=N)N)cc2)c2nn(-c3ncccn3)c(=O)[nH]2)cnc1OC` (racemic) [Example 234, 4-{[(5,6-Dimethoxypyridin-3-yl)-(5-oxo-1-pyrimidin-2-yl-4,5-dihydro-1H-[1,2,4]triazol-3-yl)methyl]amino}benzamidine] was 11.1 nM; that for `CCOc1cc(C(Nc2ccc(C(=N)N)cc2)c2nn(-c3ccsc3C(=O)O)c(=O)[nH]2)cnc1OC` (racemic) [Example 235, 3-{3-[(4-Carbamimidoylphenylamino)-(5-ethoxy-6-methoxypyridin-3-yl)methyl]-5-oxo-4,5-dihydro-[1,2,4]triazol-1-yl}thiophene-2-carboxylic acid] was 3.8 nM; that for `COc1cc(F)c(C(Nc2ccc(C(=N)N)cc2F)c2nn(-c3ncccn3)c(=O)[nH]2)cc1OC` (racemic) [Example 236, 3-Fluoro-4-{[(R) and (S)-(2-fluoro-4,5-dimethoxyphenyl)-(5-oxo-1-pyrimidin-2-yl-4,5-dihydro-1H-[1,2,4]triazol-3-yl)methyl]amino}benzamidine acetate] was 11.8 nM.
